Experiments:
CYP2C19 = CYP2C19 (Homo sapiens, UniProt P33261); test: Biological Test Example 8: CYP2C19 inhibition (diazepam N-demethylation); assay type: in vitro ADME
CYP3A4 = CYP3A4 (Homo sapiens, UniProt P08684); test: Biological Test Example 6: CYP3A4 inhibition (erythromycin N-demethylation); assay type: in vitro ADME
CYP2C9 [1] = target: T1, CYP2C9 (Homo sapiens, UniProt P11712); test: Biological Test Example 7: CYP2C9 inhibition (naproxen O-demethylation); assay type: in vitro ADME
T1 construct: purchased Invitrogen 2859; host or cells: insect cells infected with baculovirus (microsomes)
T1 sequence (P11712 whole entry): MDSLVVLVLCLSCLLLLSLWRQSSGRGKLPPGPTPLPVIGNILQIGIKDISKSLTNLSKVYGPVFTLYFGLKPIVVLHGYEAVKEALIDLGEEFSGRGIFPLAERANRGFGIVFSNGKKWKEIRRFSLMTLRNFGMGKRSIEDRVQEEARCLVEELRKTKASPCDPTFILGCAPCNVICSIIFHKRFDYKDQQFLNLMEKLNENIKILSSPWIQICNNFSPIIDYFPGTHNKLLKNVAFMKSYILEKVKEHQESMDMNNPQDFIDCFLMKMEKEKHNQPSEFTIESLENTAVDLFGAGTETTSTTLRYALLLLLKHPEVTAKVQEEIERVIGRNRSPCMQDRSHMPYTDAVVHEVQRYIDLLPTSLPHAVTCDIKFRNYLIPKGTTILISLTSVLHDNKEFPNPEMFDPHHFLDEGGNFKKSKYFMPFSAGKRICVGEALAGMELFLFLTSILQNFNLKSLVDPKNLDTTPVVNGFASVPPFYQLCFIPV

11β-HSD1 [2] = target: T2, 11β-HSD1 (Homo sapiens, UniProt P28845); test: biochemical; conditions: for inhibition at 0.1 µM: read-out: Average % inhibition at 100 nM
T2 sequence (P28845 whole entry): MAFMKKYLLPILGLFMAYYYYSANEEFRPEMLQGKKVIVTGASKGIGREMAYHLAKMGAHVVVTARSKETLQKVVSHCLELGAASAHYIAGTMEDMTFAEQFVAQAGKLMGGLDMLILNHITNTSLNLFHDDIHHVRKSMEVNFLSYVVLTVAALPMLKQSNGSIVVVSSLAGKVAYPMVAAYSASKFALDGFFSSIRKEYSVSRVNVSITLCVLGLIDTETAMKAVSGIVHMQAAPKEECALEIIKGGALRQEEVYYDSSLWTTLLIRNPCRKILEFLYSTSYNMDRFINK

11β-HSD1 [3] = target: T2, 11β-HSD1; test: Biological Test Example 4: microsomal 11β-HSD1 in the presence of 50% human plasma; conditions: for Shift: IC50 in Test Example 4 divided by IC50 in Test Example 1
CYP2C9 [4] = target: T1, CYP2C9; test: Biological Test Example 9: CYP2C9 inhibition (Invitrogen kit, fluorogenic OOMR); assay type: in vitro ADME
[5] = Biological Test Example 1 IC50 (nM)
[6] = IC50 Range, Biological Test Example 1

CYP2C19, sequence (P33261 whole entry): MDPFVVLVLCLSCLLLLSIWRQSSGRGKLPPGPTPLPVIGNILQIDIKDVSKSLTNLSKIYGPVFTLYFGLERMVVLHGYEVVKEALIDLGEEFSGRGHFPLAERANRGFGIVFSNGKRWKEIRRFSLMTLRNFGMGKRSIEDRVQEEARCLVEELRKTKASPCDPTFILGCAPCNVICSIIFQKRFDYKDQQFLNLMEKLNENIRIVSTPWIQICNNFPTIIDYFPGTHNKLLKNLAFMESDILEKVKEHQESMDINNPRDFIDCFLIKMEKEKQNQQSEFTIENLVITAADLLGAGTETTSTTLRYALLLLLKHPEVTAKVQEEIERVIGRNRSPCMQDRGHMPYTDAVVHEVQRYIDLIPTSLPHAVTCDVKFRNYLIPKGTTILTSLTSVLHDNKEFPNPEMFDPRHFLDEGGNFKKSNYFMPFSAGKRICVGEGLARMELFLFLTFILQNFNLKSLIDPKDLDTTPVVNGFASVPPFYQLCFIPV
CYP3A4, sequence (P08684 whole entry): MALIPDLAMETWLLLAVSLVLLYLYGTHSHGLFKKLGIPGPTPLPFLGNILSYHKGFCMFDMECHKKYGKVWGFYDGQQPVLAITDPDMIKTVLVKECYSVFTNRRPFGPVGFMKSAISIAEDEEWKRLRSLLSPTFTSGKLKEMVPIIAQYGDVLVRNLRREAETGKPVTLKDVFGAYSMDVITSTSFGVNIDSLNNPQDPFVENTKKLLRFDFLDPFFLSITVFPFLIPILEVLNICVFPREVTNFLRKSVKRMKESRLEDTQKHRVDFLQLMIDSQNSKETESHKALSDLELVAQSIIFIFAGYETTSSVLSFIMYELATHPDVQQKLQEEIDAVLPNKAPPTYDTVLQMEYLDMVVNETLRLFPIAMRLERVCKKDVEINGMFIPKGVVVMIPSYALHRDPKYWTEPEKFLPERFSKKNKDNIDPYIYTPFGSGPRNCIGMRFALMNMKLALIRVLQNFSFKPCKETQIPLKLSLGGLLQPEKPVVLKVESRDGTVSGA

Row | IC50 (CYP2C19) [µM] | IC50 (CYP3A4) [µM] | IC50 (CYP2C9 [1]) [µM] | IC50 (11β-HSD1 [2]; [5]) [nM] | IC50 (11β-HSD1 [2]; [6]) [nM] | inhibition at 0.1 µM (11β-HSD1 [2]) [%] | IC50 (11β-HSD1 [3]) [µM] | IC50 (CYP2C9 [4]) [µM] | Shift (11β-HSD1 [3]) | SMILES
1 | 8.2 | 7.8 | 5.6 |  |  |  |  |  |  | Cc1nc(-c2ccc([C@H](C)N3CC[C@](CC(C)(C)O)(c4ccccc4)OC3=O)cc2)sc1C [EXAMPLE 181, (S)-3-{1-[4-(4,5-Dimethyl-thiazol-2-yl)-phenyl]-ethyl}-6-(2-hydroxy-2-methyl-propyl)-6-phenyl-[1,3]oxazinan-2-one]
2 | 47.7 | 49.8 | 15.4 |  |  |  |  |  |  | C[C@@H](c1ccc(-c2ncc(C(=O)NC3CC3)s2)cc1)N1CC[C@](CC(C)(C)O)(c2ccccc2)OC1=O [EXAMPLE 20, N-cyclopropyl-2-(4-((S)-1-((S)-6-(2-hydroxy-2-methylpropyl)-2-oxo-6-phenyl-1,3-oxazinan-3-yl)ethyl)phenyl)thiazole-5-carboxamide]
3 | 25.7 | 42.9 | 30 |  |  |  |  |  |  | C[C@@H](c1ccc(-c2cc(S(C)(=O)=O)ccn2)cc1)N1CC[C@](CC(C)(C)O)(c2ccccc2)OC1=O [EXAMPLE 185, (S)-6-(2-Hydroxy-2-methyl-propyl)-3-{(S)-1-[4-(4-methanesulfonyl-pyridin-2-yl)-phenyl]-ethyl}-6-phenyl-[1,3]oxazinan-2-one]
4 | > 50 |  | > 50 |  |  |  |  |  |  | C[C@@H](c1ccc(-c2ccc(C(N)=O)cn2)cc1)N1CC[C@](CC(C)(C)O)(c2ccccc2)OC1=O [EXAMPLE 143, 6-(4-((S)-1-((S)-6-(2-hydroxy-2-methylpropyl)-2-oxo-6-phenyl-1,3-oxazinan-3-yl)ethyl)phenyl)nicotinamide]
5 | 1 | 5.4 | 7.8 |  |  |  |  |  |  | C[C@@H](c1ccc(-c2nccs2)cc1)N1CC[C@](CC(C)(C)O)(c2ccccc2)OC1=O [EXAMPLE 174, (S)-6-(2-Hydroxy-2-methyl-propyl)-6-phenyl-3-[(S)-1-(4-thiazol-2-yl-phenyl)-ethyl]-[1,3]oxazinan-2-one]
6 | > 50 | 36.4 | > 50 |  |  |  |  |  |  | C[C@@H](c1ccc(-c2cccc([S+](C)[O-])n2)cc1)N1CC[C@](CC(C)(C)O)(c2ccccc2)OC1=O (stereo partly drawn) [EXAMPLE 191, (S)-6-(2-Hydroxy-2-methyl-propyl)-3-{(S)-1-[4-(6-methanesulfinyl-pyridin-2-yl)-phenyl]-ethyl}-6-phenyl-[1,3]oxazinan-2-one]
7 | > 50 | 33.7 | > 50 |  |  |  |  |  |  | C[C@@H](c1ccc(-c2cccc(S(C)(=O)=O)n2)cc1)N1CC[C@](CC(C)(C)O)(c2ccccc2)OC1=O [EXAMPLE 190, (S)-6-(2-Hydroxy-2-methyl-propyl)-3-{(S)-1-[4-(6-methanesulfonyl-pyridin-2-yl)-phenyl]-ethyl}-6-phenyl-[1,3]oxazinan-2-one]
8 | 33.3 | 26.6 | 24.2 |  |  |  |  |  |  | Cc1nn(C)cc1-c1ccc([C@H](C)N2CC[C@](CC(C)(C)O)(c3ccccc3)OC2=O)cc1 [EXAMPLE 193, 3-{(S)-1-[4-(1,3-Dimethyl-1H-pyrazol-4-yl)-phenyl]-ethyl}-(S)-6-(2-hydroxy-2-methyl-propyl)-6-phenyl-[1,3]oxazinan-2-one]
9 |  | 14.9 | 12.2 | 1.1 | < 100 | 97.7 | 0.0098 | 9.1 |  | Cc1cc(-c2ccc([C@H](C)N3CC[C@](CCO)(c4ccc(F)cc4)OC3=O)cc2)ccn1 [EXAMPLE 75, (S)-6-(4-fluorophenyl)-6-(2-hydroxyethyl)-3-((S)-1-(4-(2-methylpyridin-4-yl)phenyl)ethyl)-1,3-oxazinan-2-one]
10 | 7.9 | 16.8 | 15.1 |  |  |  |  |  |  | CCNC(=O)c1ccc(-c2ccc([C@H](C)N3CC[C@](CC(C)(C)O)(c4ccccc4)OC3=O)cc2)cn1 [EXAMPLE 168, 5-(4-{(S)-1-[(S)-6-(2-Hydroxy-2-methyl-propyl)-2-oxo-6-phenyl-[1,3]oxazinan-3-yl]-ethyl}-phenyl)-pyridine-2-carboxylic acid ethylamide]
11 | > 50 | > 50 | > 50 |  |  |  |  |  |  | C[C@@H](c1ccc(-c2ccc([S+](C)[O-])nc2)cc1)N1CC[C@](CC(C)(C)O)(c2ccccc2)OC1=O (stereo partly drawn) [EXAMPLE 182, (S)-6-(2-Hydroxy-2-methyl-propyl)-3-{(S)-1-[4-(6-methanesulfinyl-pyridin-3-yl)-phenyl]-ethyl}-6-phenyl-[1,3]oxazinan-2-one]
12 | > 50 | > 50 | > 50 |  |  |  |  |  |  | C[C@@H](c1ccc(-c2cncc([S+](C)[O-])c2)cc1)N1CC[C@](CC(C)(C)O)(c2ccccc2)OC1=O (stereo partly drawn) [EXAMPLE 189, (S)-6-(2-Hydroxy-2-methyl-propyl)-3-{(S)-1-[4-(5-methanesulfinyl-pyridin-3-yl)-phenyl]-ethyl}-6-phenyl-[1,3]oxazinan-2-one]
13 | 39.4 | 45.6 | 48.6 |  |  |  |  |  |  | C[C@@H](c1ccc(-c2ccc(C(=O)N(C)C)nc2)cc1)N1CC[C@](CC(C)(C)O)(c2ccccc2)OC1=O [EXAMPLE 170]
14 | 14.4 | 9.8 | 9.2 |  |  |  |  |  |  | Cc1ncc(-c2ccc([C@H](C)N3CC[C@](CC(C)(C)O)(c4ccccc4)OC3=O)cc2)s1 [EXAMPLE 180, (S)-6-(2-Hydroxy-2-methyl-propyl)-3-{(S)-1-[(2-methyl-4-thiazol-5-yl)-phenyl]-ethyl}-6-phenyl-[1,3]oxazinan-2-one]
15 | 33.8 |  | 28.8 |  |  |  |  |  |  | CNC(=O)c1ccc(-c2ccc([C@H](C)N3CC[C@](CC(C)(C)O)(c4ccccc4)OC3=O)cc2)nc1 [EXAMPLE 150, 6-(4-{1-[6-(2-Hydroxy-2-methyl-propyl)-2-oxo-6-phenyl-[1,3]oxazinan-3-yl]-ethyl}-phenyl)-N-methyl-nicotinamide]
16 | 32.3 |  | 32.6 |  |  |  |  |  |  | Cc1cnc(-c2ccc([C@H](C)N3CC[C@](CC(C)(C)O)(c4ccccc4)OC3=O)cc2)cn1 [EXAMPLE 151, (S)-6-(2-hydroxy-2-methylpropyl)-3-((S)-1-(4-(5-methylpyrazin-2-yl)phenyl)ethyl)-6-phenyl-1,3-oxazinan-2-one]
17 | > 50 | > 50 | 25.9 |  |  |  |  |  |  | C[C@@H](c1ccc(-c2ccnc(S(C)(=O)=O)c2)cc1)N1CC[C@](CC(C)(C)O)(c2ccccc2)OC1=O [EXAMPLE 187, (S)-6-(2-Hydroxy-2-methyl-propyl)-3-{(S)-1-[4-(2-methanesulfonyl-pyridin-4-yl)-phenyl]-ethyl}-6-phenyl-[1,3]oxazinan-2-one]
18 | 17 | 21.1 | 10.7 |  |  |  |  |  |  | C[C@@H](c1ccc(-c2nnc(C(F)(F)F)s2)cc1)N1CC[C@](CC(C)(C)O)(c2ccccc2)OC1=O [EXAMPLE 179, (S)-6-(2-Hydroxy-2-methyl-propyl)-6-phenyl-3-{(S)-1-[4-(5-trifluoromethyl-[1,3,4]thiadiazol-2-yl)-phenyl]-ethyl}-[1,3]oxazinan-2-one]
19 |  |  |  | 2.3 | < 100 | 97.3 | 0.0075 | 4.8 |  | Cc1cc(-c2ccc([C@H](C)N3CC[C@](CC(C)(C)O)(c4ccccc4)OC3=O)cc2)cc(C)[n+]1[O-] [EXAMPLE 121, 4-(4-((S)-1-((S)-6-(2-hydroxy-2-methylpropyl)-2-oxo-6-phenyl-1,3-oxazinan-3-yl)ethyl)phenyl)-2,6-dimethylpyridine 1-oxide]
20 |  |  |  | 1.2 | < 100 | 93.1 | 0.006 | 4.5 | 4.8 | C[C@@H](c1ccc(-c2ccn(C)n2)cc1)N1CC[C@](CCCO)(c2ccccc2)OC1=O [EXAMPLE 100, (R)-6-(3-hydroxypropyl)-3-((S)-1-(4-(1-methyl-1H-pyrazol-3-yl)phenyl)ethyl)-6-phenyl-1,3-oxazinan-2-one]
21 |  |  |  | 0.7 | < 100 | 97.4 | 0.0048 | 1.7 | 7.3 | C[C@@H](c1ccc(-c2cncc(F)c2)cc1)N1CC[C@](CCCO)(c2ccc(F)cc2)OC1=O [EXAMPLE 148, (R)-6-(4-fluorophenyl)-3-((S)-1-(4-(5-fluoropyridin-3-yl)phenyl)ethyl)-6-(3-hydroxypropyl)-1,3-oxazinan-2-one]
22 |  |  |  | 1 | < 100 | 94.7 | 0.0088 | 3.9 | 8.9 | Cc1nc(C)c(-c2ccc([C@H](C)N3CC[C@](CCCO)(c4ccc(F)cc4)OC3=O)cc2)s1 [EXAMPLE 83, (R)-3-((S)-1-(4-(2,4-dimethylthiazol-5-yl)phenyl)ethyl)-6-(4-fluorophenyl)-6-(3-hydroxypropyl)-1,3-oxazinan-2-one]

Row | SMILES | IC50 (CYP2C19) [µM] | IC50 (CYP3A4) [µM] | IC50 (CYP2C9 [1]) [µM] | IC50 (11β-HSD1 [2]; [5]) [nM] | IC50 (11β-HSD1 [2]; [6]) [nM] | inhibition at 0.1 µM (11β-HSD1 [2]) [%] | IC50 (11β-HSD1 [3]) [µM] | IC50 (CYP2C9 [4]) [µM] | Shift (11β-HSD1 [3])
23 | C[C@@H](c1ccc(-c2nncs2)cc1)N1CC[C@](CC(C)(C)O)(c2ccccc2)OC1=O [EXAMPLE 173, (S)-6-(2-Hydroxy-2-methyl-propyl)-6-phenyl-3-[(S)-1-(4-[1,3,4]thiadiazol-2-yl-phenyl)-ethyl]-[1,3]oxazinan-2-one] | 33.6 | 25.1 | 27.2 |  |  |  |  |  | 
24 | Cc1nn(C)c(C)c1-c1ccc([C@H](C)N2CC[C@](CC(C)(C)O)(c3ccccc3)OC2=O)cc1 [EXAMPLE 177, (S)-6-(2-Hydroxy-2-methyl-propyl)-6-phenyl-3-{(S)-1-[4-(1,3,5-trimethyl-1H-pyrazol-4-yl)-phenyl]-ethyl}-[1,3]oxazinan-2-one] | 17.7 | > 50 | 8.8 |  |  |  |  |  | 
25 | COC[C@]1(c2ccccc2)CCN([C@@H](C)c2ccc(-c3ccc(C)nn3)cc2)C(=O)O1 [EXAMPLE 167, (R)-6-(methoxymethyl)-3-((S)-1-(4-(6-methylpyridazin-3-yl)phenyl)ethyl)-6-phenyl-1,3-oxazinan-2-one] | 26.1 | 46.7 | 29.5 |  |  |  |  |  | 

Reference: patent US8569292B2, “Cyclic inhibitors of 11β-hydroxysteroid dehydrogenase 1” (Vitae Pharmaceuticals, Inc., priority 2008, dated 2013)
